# Where two headings read alike, the source gives them in different places.
# How the values were obtained:
# PARP1 = PARP1 (Homo sapiens (Human), UniProt P09874); assay: PARP fluorescence anisotropy binding assay, PARP1
# Description: Recombinant full length 6HIS tagged PARP1 protein was diluted to 6 nM with 50 mM Tris pH 8, 0.001% Triton X100, 10 mM MgCl2, 150 mM NaCl and incubated for four hours with an equivalent volume of 2 nM fluorescent probe diluted with 50 mM Tris pH 8, 0.001% Triton X100, 10 mM MgCl2, 150 mM NaCl. The final DMSO concentration of the probe was kept below 1% (v/v).
# [1] = Determination of Kpuu in rat; assay type: in vivo, Han Wistar rats; settings: intravenous infusion; for Kp uu at 4 h: Han Wistar, rat, brain and plasma (unbound brain-to-plasma ratio), 2 µmols/kg/h; for Rat Kpuu: 4 h, brain/plasma unbound
# Description: The fraction unbound was determined using the RED Device.
# Compounds were prepared as 10 mM solutions in DMSO. […] If less than 9 test compounds were included then the addition volume of blank DMSO was added to make up volume to 40 uL.
# Frozen plasma was thawed in a water bath at 37° C. Plasma was then centrifuged for 2 minutes at 4,000 rpm to remove clots and collect supernatant into a fresh tube. The pH of the plasma was checked and only used if within the range of pH 7 to pH 8. 3 μL of the working solution of each cassette was added to 597 μL of blank plasma and vortexed for 5 minutes at 1000 rpm. The final percent volume of organic solvent is 0.5% and the final concentration for test compound was 5 μM. Immediately transfer 50 μL of the spiked plasma suspension to a 96-well plate to act as T=0 control sample. The samples are treated the same as the samples after incubation. The remaining plasma is kept at 37° C. prior to starting the dialysis.
# Place inserts open end up into the wells of the base plate. Add 300 μL of spiked plasma sample into the sample chamber, indicated by the red ring. Add 500 μL of phosphate buffer (pH 7.4) to the buffer chamber. Cover the unit with gas permeable lid and incubate for 18 hours at 37° C. at 300 rpm with 5% CO2 on an orbital shaker in the CO2 incubator. At the end of incubation, remove lid and pipette 50 μL of post-dialysis samples from both buffer and plasma chambers into separated 96-well plate for analysis, respectively.
# Samples were matrix matched by adding 50 μL of blank rat plasma to the buffer samples and an equal volume of PBS to the collected plasma samples and vortexed to mix. 400 μL of acetonitrile containing an appropriate internal standard (IS) was added to precipitate protein and release compound and mixed by vortexing the plate for 10 minutes followed by centrifugation for 30 minutes at 4,000 rpm. 250 μL of the supernatant was transferred to new 96-well plates and centrifuged again (4,000 rpm, 30 minutes). 100 μL of the supernatant was then transferred to new 96-well plates and mixed with 100 μL of distilled water to each sample by vortex for 5 minutes at 1,000 rpm. Samples were analysed by LC-MS/MS and drug concentrations were determined vs a calibration curve produced from spiked blank plasma with a typical range of 1-7500 nM.
# The % unbound was determined as % Unbound=(Conc. buffer chamber/Conc. plasma chamber)×100%. Fraction unbound=% unbound/100.
# The principle for the method for the determination of volume unbound in brain slices has previously been published (Development of a High-Throughput Brain Slice Method for Studying Drug Distribution in the Central Nervous System; Fridén et al; Drug Metabolism and Disposition, 2009, 37 (6) 1226-1233). In brief:
# Compound stock solutions were prepared in DMSO at the concentration of 10 mM. […] If less than 9 test compounds were included, then blank DMSO was added to make up volume to 40 uL. On the day of the experiment 4 ul was diluted in 40 mL ECF buffer to give a 100 nM solution of each test compounds which was then pre-warmed to 37° C. before the start of the incubation.
# To prepare brain slices, rats weighing approximately 300 g were terminally anesthetised with isoflurane by inhalation, the brain carefully removed and immersed in ice-cold oxygenated ECF buffer. The rat brain was transferred to a dish containing ice-cold, 02 supplied ECF buffer and trimmed with razor before gluing to the tray of a microslicer with the brain placed with the back section surface down centrally on the tray. Ice cold ECF buffer was added to harden the glue and wet the brain. The tray was placed in the microslicer and using a suitable cutting speed, 100-400 μm were cut slices until the striatum area appeared. Four to six for each brain, 300 μm thick, coronal slices of striatum areas were cut and placed in ice cold 02 supplied buffer until incubation. Six slices were transferred to the incubation tray containing 40 mL pre warmed (37° C.) cassette mixture. […]
# PARP3 = PARP3 (Homo sapiens (Human), UniProt Q9Y6F1); assay: PARP fluorescence anisotropy binding assay, PARP3
# Description: Recombinant full length PARP3 protein was diluted to 100 nM with 50 mM Tris pH 8, 0.001% Triton X100, 10 mM MgCl2, 150 mM NaCl and incubated for four hours with an equivalent volume of 6 nM fluorescent probe diluted with 50 mM Tris pH 8, 0.001% Triton X100, 10 mM MgCl2, 150 mM NaCl. The final DMSO concentration of the probe was kept below 1% (v/v).
# MDR1 and BCRP = assay: In vitro human transporter efflux (MDCK-MDR1-BCRP); settings: human, pH 7.4
# Description: MDCKII cells expressing MDR1 and BCRP were seeded onto polyethylene membranes in 96-well Transwell insert systems at a density to form a confluent cell monolayer. […] The final percent volume of the organic solvent was less than 1%. Permeation of the test compounds from A to B direction and from B to A direction was determined over a 90-min incubation at 37° C. and 5% CO2 with a relative humidity of 95%. At the end of the incubation, samples from the apical and basolateral side were taken and then precipitated with cold acetonitrile containing internal standard. After centrifugation at 4000 rpm, the supernatant was diluted with 0.1% formic acid aqueous solution and quantified by LC-MS/MS. The integrity of the cell monolayers was confirmed by using the marker Lucifer yellow.
# The permeability coefficient (1×10-6 cm/s) was calculated using the following equation
# (1) The Efflux Ratio was Calculated Using the Following Equation
# Efflux ratio=Papp(B to A)/Papp(A to B)
# (2) where dCr/dt is the cumulative concentration of the compound in the receiver chamber as a function of time (in μM/s); Vr is the solution volume in the receiver chamber (0.1 ml on the apical side and 0.3 ml on the basolateral side); A is the surface area for the transport, that is, 0.11 cm2 for the area of the monolayer; and C0 is the initial concentration in the donor chamber (in μM).
# PARP6 = PARP6 (Homo sapiens (Human), UniProt Q2NL67); assay: PARP fluorescence anisotropy binding assay, PARP6
# Description: (§1) Recombinant full length GST tagged PARP6 protein was diluted to 160 nM with 50 mM Tris pH 8, 0.001% Triton X100, 10 mM MgCl2, 150 mM NaCl and incubated for four hours with an equivalent volume of 6 nM fluorescent probe diluted with 50 mM Tris pH 8, 0.001% Triton X100, 10 mM MgCI2, 150 mM NaCl. The final DMSO concentration of the probe was kept below 1% (v/v).
# Fluorescence anisotropy of the probe when bound to the proteins was measured using a BMG Pherastar FSX® in the presence of test compounds or solvent control and the effect on anisotropy determined. % inhibition values for different test compound concentrations were calculated and fitted to a four parameter logistic plot in order to determine the IC50 value. Where necessary, the compound K, can be determined from the IC50 value using a Munson Rodbard equation defined in Anal Biochem. 1980 Sep. 1; 107(1):220-39 and is based on the known KD of the probe binding to the relevant PARP protein
# PARP2 = PARP2 (Homo sapiens (Human), UniProt Q9UGN5); assay: PARP fluorescence anisotropy binding assay, PARP2
# Description: as §1, with “PARP2” for “GST tagged PARP6”, “6” for “160”, “2” for “6”, “MgCl2,” for “MgCI2,”
# Fluorescence anisotropy of the probe when bound to the proteins was measured using a BMG Pherastar FSX® in the presence of test compounds or solvent control and the effect on anisotropy determined. % inhibition values for different test compound concentrations were calculated and fitted to a four parameter logistic plot in order to determine the IC50 value.
# PARP5a = PARP5a (Homo sapiens (Human), UniProt O95271); assay: PARP fluorescence anisotropy binding assay, PARP5a
# Description: Recombinant PARP5a binding domain was diluted to 160 nM with 50 mM Tris pH 8, 0.001% Triton X100, 10 mM MgCl2, 150 mM NaCl and incubated for four hours with an equivalent volume of 6 nM fluorescent probe diluted with 50 mM Tris pH 8, 0.001% Triton X100, 10 mM MgCl2, 150 mM NaCl. The final DMSO concentration of the probe was kept below 1% (v/v).
# hERG = hERG (Homo sapiens (Human), UniProt Q12809); assay: hERG IC50
# U87MG xenograft = assay type: in vivo, female Nude mice
# Description: U87MG cells (2.5 million in serum-free MEM medium) were implanted subcutaneously (SC) into the dorsal flank of female Nude mice (weight greater than 18 g). Tumours were measured (length x width) two times weekly by bilateral Vernier calliper measurements and tumour volume was calculated using elliptical formula (π/6×width×width×length). Animal bodyweight and tumour condition were monitored throughout the study. Mice were randomised into treatment groups when mean tumour volume reached approximately 0.2 cm^3.
# Animals were treated orally (PO) from the day after the randomisation. Control animals were treated with vehicle (water/methane sulfonic acid (MSA) pH3-3.2) once daily for 10 days (QD×10). PARP inhibitor in water/MSA pH3-3.2 was dosed in the monotherapy and combination groups at 3 mg/kg QD×10 or QD×33, respectively. Temozolomide (TMZ) in OraPlus Perrigo was dosed in the monotherapy group at 25 mg/kg QD on days 1-5 and 29-33, and in monotherapy and combination group at 6.25 mg/kg QD on days 1-5 and 29-33.
# Tumour growth inhibition from start of treatment was assessed by comparison of the mean change in tumour volume (TV) of the control and treated groups and represented as percent tumour growth inhibition (TGI, when tumour volume (TV) >starting TV) or tumour regression (reg, when TV<starting TV). Statistical significance was evaluated using a one-tailed t test. Statistical significance is indicated as follows: *p:0.05, **p:0.01, ***p:0.001.
# BRCA2 (−/−) DLD1 cells = assay: PARP proliferation assay (7 day compound dosing), BRCA2 (−/−) DLD1; assay type: cell-based; settings: Homo sapiens, DLD-1, 168 h, read-out: BRCA2 −/− DLD-1 prolif. 7 d IC50
# Description: DLD1 and BRCA2 (−/−) DLD1 cells were harvested to a density of 5000 cells/ml and 2.5E4 cells/ml respectively in complete media, 40 μL/well seeded into 384-well plates (Greiner, Kremsmunster, Austria; 781090) using a Multidrop Combi then incubated at 37° C., 5% CO2 overnight. Next day (Day 1) using a Multidrop Combi add sytox green (5ul, 2 uM) and saponin (10 ul, 0.25% stock) to a day 0 plate, seal the plate using a black adhesive lid and incubate for >3 h at it. Cells were imaged using Cell Insight (Thermo Fisher) fitted with a 4x objective. Test compounds are added using an Echo 555 and placed in incubator maintained at 37° C., 5% CO2 and incubated for 7 days. On Day 8 add sytox green (5ul, 2 uM) and then saponin (10 ul, 0.25% stock) to plates, seal the plate using a black adhesive lid and incubate for >3 h at it. Read all cells on the Cell Insight with 4× Objective. The rate of proliferation is determined in Genedata by assessing the total cell number output from the Cell Insight for Day 0 and Day 8 plates.
# [2] = TMZ 6.25 mg/kg QD on days 1-5 and 29-33, PO
# [3] = TMZ 25 mg/kg QD on days 1-5 and 29-33, PO
# Sequence of PARP5a (O95271 1112-1317): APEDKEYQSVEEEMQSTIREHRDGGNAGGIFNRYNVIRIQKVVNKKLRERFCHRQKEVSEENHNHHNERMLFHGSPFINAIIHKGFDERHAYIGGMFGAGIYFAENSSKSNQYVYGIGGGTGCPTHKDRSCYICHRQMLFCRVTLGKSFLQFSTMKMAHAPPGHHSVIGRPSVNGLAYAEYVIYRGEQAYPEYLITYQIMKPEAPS
# Sequence of PARP1 (P09874 whole entry, the tested form may be a part): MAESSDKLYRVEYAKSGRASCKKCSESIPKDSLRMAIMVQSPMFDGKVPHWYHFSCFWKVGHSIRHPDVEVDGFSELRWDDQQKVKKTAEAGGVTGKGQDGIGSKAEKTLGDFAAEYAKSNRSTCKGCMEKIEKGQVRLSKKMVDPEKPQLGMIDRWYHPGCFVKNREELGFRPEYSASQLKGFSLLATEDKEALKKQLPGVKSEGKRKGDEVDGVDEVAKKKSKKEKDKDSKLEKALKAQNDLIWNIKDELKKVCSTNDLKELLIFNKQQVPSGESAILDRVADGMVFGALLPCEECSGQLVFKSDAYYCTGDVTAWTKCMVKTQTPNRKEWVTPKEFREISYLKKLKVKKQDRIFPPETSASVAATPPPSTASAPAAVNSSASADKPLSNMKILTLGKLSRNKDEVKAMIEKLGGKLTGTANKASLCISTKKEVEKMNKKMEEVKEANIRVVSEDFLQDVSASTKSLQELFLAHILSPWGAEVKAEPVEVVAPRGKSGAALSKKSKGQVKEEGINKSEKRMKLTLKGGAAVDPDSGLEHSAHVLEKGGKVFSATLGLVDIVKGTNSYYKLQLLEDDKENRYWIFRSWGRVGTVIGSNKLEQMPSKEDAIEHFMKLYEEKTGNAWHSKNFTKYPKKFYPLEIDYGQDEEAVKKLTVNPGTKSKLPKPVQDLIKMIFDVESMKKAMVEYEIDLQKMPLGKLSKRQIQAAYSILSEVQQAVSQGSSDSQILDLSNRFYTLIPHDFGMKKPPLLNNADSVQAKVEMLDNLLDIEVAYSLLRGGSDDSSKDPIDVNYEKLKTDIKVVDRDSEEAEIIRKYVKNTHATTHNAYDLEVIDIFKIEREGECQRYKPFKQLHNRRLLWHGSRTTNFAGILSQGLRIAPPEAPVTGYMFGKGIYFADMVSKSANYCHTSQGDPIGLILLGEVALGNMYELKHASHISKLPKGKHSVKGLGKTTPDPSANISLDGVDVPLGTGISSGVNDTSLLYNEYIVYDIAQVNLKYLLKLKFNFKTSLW
# Sequence of PARP6 (Q2NL67 whole entry): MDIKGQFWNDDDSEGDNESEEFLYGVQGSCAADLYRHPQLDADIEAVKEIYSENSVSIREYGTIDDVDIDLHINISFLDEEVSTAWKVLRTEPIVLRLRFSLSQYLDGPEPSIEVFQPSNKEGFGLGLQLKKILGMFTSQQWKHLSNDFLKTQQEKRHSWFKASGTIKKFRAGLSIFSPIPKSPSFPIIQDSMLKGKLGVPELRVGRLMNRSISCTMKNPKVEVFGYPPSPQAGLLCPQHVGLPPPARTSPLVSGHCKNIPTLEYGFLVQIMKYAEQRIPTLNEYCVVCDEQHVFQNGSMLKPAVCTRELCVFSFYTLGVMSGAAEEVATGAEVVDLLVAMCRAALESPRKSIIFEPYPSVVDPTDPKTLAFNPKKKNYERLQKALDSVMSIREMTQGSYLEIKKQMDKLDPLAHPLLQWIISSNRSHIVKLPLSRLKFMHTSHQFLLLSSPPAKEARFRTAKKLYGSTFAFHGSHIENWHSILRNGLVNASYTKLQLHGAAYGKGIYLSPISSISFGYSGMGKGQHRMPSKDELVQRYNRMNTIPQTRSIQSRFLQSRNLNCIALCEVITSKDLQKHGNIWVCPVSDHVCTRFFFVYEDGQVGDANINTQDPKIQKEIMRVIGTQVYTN
# Sequence of PARP3 (Q9Y6F1 whole entry): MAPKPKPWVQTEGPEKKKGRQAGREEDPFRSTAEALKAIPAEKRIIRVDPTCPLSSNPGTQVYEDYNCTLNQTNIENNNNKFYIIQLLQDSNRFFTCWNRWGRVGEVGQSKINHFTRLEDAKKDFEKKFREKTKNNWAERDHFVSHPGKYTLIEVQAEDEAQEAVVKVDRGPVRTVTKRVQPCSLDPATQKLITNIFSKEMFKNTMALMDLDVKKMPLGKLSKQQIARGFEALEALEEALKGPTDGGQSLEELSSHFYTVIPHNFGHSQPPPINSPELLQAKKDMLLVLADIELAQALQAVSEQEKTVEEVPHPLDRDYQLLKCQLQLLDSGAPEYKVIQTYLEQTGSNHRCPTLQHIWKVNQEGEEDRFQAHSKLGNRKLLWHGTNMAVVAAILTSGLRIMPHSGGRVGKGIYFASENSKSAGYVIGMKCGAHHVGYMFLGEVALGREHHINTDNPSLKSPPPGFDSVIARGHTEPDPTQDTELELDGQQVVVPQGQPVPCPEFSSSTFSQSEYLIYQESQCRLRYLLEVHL
# Sequence of PARP2 (Q9UGN5 whole entry): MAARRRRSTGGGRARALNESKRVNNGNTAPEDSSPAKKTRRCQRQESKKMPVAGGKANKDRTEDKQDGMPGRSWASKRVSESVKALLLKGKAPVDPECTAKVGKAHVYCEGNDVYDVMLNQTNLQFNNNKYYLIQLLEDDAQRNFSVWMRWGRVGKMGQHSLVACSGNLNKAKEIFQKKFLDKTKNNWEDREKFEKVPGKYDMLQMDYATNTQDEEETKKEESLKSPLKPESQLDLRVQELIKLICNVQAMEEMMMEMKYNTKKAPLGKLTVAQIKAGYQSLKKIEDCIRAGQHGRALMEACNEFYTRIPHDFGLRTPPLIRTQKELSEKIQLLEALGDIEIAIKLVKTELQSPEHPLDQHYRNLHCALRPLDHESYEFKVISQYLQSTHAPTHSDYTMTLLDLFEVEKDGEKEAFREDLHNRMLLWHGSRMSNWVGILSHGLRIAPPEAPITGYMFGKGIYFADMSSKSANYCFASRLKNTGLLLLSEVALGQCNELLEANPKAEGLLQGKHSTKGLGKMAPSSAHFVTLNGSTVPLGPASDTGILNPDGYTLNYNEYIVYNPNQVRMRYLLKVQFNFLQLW
# Sequence of hERG (Q12809 whole entry): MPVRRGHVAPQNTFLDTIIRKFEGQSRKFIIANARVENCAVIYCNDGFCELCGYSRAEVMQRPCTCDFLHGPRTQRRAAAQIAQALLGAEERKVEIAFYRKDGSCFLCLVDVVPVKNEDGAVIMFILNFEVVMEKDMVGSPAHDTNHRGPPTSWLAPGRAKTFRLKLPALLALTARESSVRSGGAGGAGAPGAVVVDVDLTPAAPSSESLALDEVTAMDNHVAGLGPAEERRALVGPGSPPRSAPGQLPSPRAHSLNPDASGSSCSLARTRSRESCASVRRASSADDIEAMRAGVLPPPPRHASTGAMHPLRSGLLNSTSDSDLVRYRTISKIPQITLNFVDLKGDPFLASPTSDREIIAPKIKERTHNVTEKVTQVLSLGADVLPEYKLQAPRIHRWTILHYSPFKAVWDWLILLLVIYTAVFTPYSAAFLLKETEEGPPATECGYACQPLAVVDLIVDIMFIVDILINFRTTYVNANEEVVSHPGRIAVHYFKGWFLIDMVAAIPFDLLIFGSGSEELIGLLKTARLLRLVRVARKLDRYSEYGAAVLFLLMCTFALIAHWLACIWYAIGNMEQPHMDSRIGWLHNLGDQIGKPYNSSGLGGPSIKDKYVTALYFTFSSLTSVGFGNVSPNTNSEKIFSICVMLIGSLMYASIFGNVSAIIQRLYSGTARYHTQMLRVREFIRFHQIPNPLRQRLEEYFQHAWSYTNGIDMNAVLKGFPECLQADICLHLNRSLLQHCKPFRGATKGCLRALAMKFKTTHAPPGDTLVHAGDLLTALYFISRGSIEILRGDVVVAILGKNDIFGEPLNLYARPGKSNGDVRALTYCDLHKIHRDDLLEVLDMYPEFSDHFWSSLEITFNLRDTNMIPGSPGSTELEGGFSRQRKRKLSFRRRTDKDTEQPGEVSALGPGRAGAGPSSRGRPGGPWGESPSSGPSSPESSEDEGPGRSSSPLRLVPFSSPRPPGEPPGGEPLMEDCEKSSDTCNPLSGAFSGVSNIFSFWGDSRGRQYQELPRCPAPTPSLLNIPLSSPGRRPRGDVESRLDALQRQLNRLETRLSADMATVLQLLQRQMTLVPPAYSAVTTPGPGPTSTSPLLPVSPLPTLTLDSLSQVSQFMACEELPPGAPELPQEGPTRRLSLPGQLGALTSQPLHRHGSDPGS
SMILES,IC50 (PARP1),Kp uu at 4 h [1],IC50 (PARP3),efflux ratio at 90 min (MDR1 and BCRP),IC50 (PARP6),IC50 (PARP2),IC50 (PARP5a),IC50 (hERG),tumour regression (U87MG xenograft; [2]),tumours regressed (U87MG xenograft; [2]),tumour regression (U87MG xenograft; [3]),tumours regressed (U87MG xenograft; [3]),Rat Kpuu [1],IC50 (BRCA2 (−/−) DLD1 cells)
"CNC(=O)c1ccc(N2CCN(Cc3ccc4nc(C)c(=O)[nH]c4c3C)CC2)c(F)n1 [Example 1, 5-[4-[(2,5-dimethyl-3-oxo-4H-quinoxalin-6-yl)methyl]piperazin-1-yl]-6-fluoro-N-methyl-pyridine-2-carboxamide]",0.004 µM,0.07,> 100 µM,0.7,> 100 µM,> 70 µM,> 100 µM,–,–,–,–,–,–,–
"CCc1nc2ccc(CN3CCN(c4ccc(C(=O)NC)nc4C)CC3)c(F)c2[nH]c1=O [Example 23, 5-[4-[(2-ethyl-5-fluoro-3-oxo-4H-quinoxalin-6-yl)methyl]piperazin-1-yl]-N,6-dimethyl-pyridine-2-carboxamide]",0.005 µM,0.62,> 100 µM,0.8,> 100 µM,> 67 µM,> 100 µM,–,–,–,–,–,–,–
"CNC(=O)c1ccc(N2CCN(Cc3ccc4nc(C)c(=O)[nH]c4c3Cl)CC2)c(C)n1 [Example 18, 5-[4-[(5-chloro-2-methyl-3-oxo-4H-quinoxalin-6-yl)methyl]piperazin-1-yl]-N,6-dimethyl-pyridine-2-carboxamide]",0.005 µM,–,–,–,–,–,–,14 µM,–,–,–,–,–,–
"Cn1nnc2c(C(N)=O)ncn2c1=O [TMZ, Temozolomide]",–,–,–,–,–,–,–,–,28%,2/8,92%,7/8,–,–
"CCc1nc2ccc(CN3CCN(c4ccc(C(=O)NC)nc4F)CC3)c(F)c2[nH]c1=O [Example 27, 5-[4-[(2-ethyl-5-fluoro-3-oxo-4H-quinoxalin-6-yl)methyl]piperazin-1-yl]-6-fluoro-N-methyl-pyridine-2-carboxamide]",–,–,> 100 µM,–,> 100 µM,–,> 100 µM,–,–,–,–,–,0.43,–
"CCc1nc2ccc(CN3CCN(c4ccc(C(=O)NC)nc4)CC3)c(F)c2[nH]c1=O [Example 29, 5-[4-[(2-ethyl-5-fluoro-3-oxo-4H-quinoxalin-6-yl)methyl]piperazin-1-yl]-N-methyl-pyridine-2-carboxamide]",0.015 µM,0.33,> 100 µM,0.7,> 100 µM,> 100 µM,> 100 µM,–,–,–,–,–,–,–
"CNC(=O)c1ccc(N2CCN(Cc3ccc4nc(C)c(=O)[nH]c4c3F)CC2)c(C)n1 [Example 31, 5-[4-[(5-fluoro-2-methyl-3-oxo-4H-quinoxalin-6-yl)methyl]piperazin-1-yl]-N,6-dimethyl-pyridine-2-carboxamide]",0.007 µM,–,> 100 µM,1.6,> 100 µM,> 100 µM,> 100 µM,–,–,–,–,–,0.19,0.007 µM
"CNC(=O)c1ccc(N2CCN(Cc3ccc4nc(C)c(=O)[nH]c4c3C)CC2)c(C)n1 [Example 4, 5-[4-[(2,5-dimethyl-3-oxo-4H-quinoxalin-6-yl)methyl]piperazin-1-yl]-N,6-dimethyl-pyridine-2-carboxamide]",0.005 µM,0.13,78 µM,0.8,> 100 µM,> 83 µM,> 100 µM,–,–,–,–,–,–,–
"CNC(=O)c1ccc(N2CCN(Cc3ccc4nc(C(F)(F)F)c(=O)[nH]c4c3F)CC2)c(F)n1 [Example 48, 6-fluoro-5-[4-[[5-fluoro-3-oxo-2-(trifluoromethyl)-4H-quinoxalin-6-yl]methyl]piperazin-1-yl]-N-methyl-pyridine-2-carboxamide]",0.039 µM,–,> 100 µM,8.8,> 100 µM,26 µM,> 100 µM,–,–,–,–,–,–,–

# Source: US20250082630A1, “METHODS OF TREATING BRAIN TUMOURS AND NEUROBLASTOMAS” (AstraZeneca AB, priority 2021, published 2025)
